Consider 31 compounds from US8933075B2, “Compounds useful as antiviral agents, compositions, and methods of use” (priority 2010, dated 2015).

In one assay the test system is H1 and H2 viruses. Conditions: cited from earlier work.
The next assay deals with H3 viruses. Conditions: cited from earlier work.
For the next assay, the system named is A/Udorn/72 (H3N2) virus. The experiment in a line: Plaque assay in MDCK cells: EC50 by reduction of plaque number. Conditions: MDCK. The format is cell-based, influenza virus.
A further assay concerns pseudoHIV particles. The experiment in a line: HIV pseudovirus assay in X4 cells (luciferase). The format is cell-based, HIV-1. Conditions: Human immunodeficiency virus 1, read-out: HIV EC50. As for the experimental part: A plasmid coding the HIV-1 genome, deleting the envelope protein gene and with a luciferase gene inserted, and a plasmid coding the envelope protein gene were cotransfected into 293T cells. After 48 hr, the supernatant containing pseudoHlV particles was collected for transducing assay. In 96 well plates, X4 cells were plated and incubated till confluent. The pseudoHlV particles were incubated with various concentrations of inhibitor compounds for one hour in room temperature. The particles were then used for tranducing X4 cells. The transduced X4 cells were lysed after 48 hr and the luciferase activity was measured in a luminometer.

Assay [1] concerns influenza viruses that have HA subtypes H1 and H2. Conditions: cited from earlier work.
Assay [2] deals with influenza viruses that have HA subtype H3. Conditions: cited from earlier work.
A further assay concerns influenza virus. Conditions: cited from earlier work.

Broadly, the EC50 is the concentration giving half of the maximal effect. For the compound Stachyflin, the EC50 result in the assay on H1 and H2 viruses is on record as “μM range”. In the assay with H3 viruses, the “activity against H3 viruses” value is “not H3”.
On to `COc1cc(OC)cc(-c2cc(CCCNC(=O)[C@@H](N)c3ccccc3)c(/C=C3\SC(=S)N(C4CC5CCC4C5)C3=O)o2)c1` (stereo partly shown) [Compound 170], for which the EC50 in the assay on A/Udorn/72 (H3N2) virus and with pseudoHIV particles was below 100 nM in each case.
Take `O=C1/C(=C/c2oc(-c3ccc(F)cc3)cc2CCCO)SC(=S)N1C1C2CC3CC(C2)CC1C3` (stereo not shown) [Compound 103]: the EC50 in the assay with A/Udorn/72 (H3N2) virus and with pseudoHIV particles was below 100 nM in each case.
Take `COc1cc(OCC(=O)O)cc(-c2ccc(/C=C3\SC(=S)N(C4CC5CCC4C5)C3=O)o2)c1` (stereo not shown) [Compound 37]: the EC50 in the assay on A/Udorn/72 (H3N2) virus and in the assay on pseudoHIV particles was below 100 nM in each case.
Regarding `COc1cc(O)cc(-c2cc(CCCNC(=N)N)c(/C=C3\SC(=S)N(C4CC5CCC4C5)C3=O)o2)c1` (stereo not shown) [Compound 194], the EC50 in the assay on A/Udorn/72 (H3N2) virus and with pseudoHIV particles was below 100 nM in each case.
Regarding `COc1cc(O)cc(-c2cc(CCCNC(=O)[C@@H](N)CC(N)=O)c(/C=C3\SC(=S)N(C4CC5CCC4C5)C3=O)o2)c1` (stereo partly shown) [Compound 174], the concentration for a half-maximal effect (EC50) in the assay on A/Udorn/72 (H3N2) virus and with pseudoHIV particles was below 100 nM throughout.
As for `COc1cc(OC)cc(-c2cc(CCCNC(=O)[C@@H](N)Cc3ccc(O)cc3)c(/C=C3\SC(=S)N(C4CC5CCC4C5)C3=O)o2)c1` (stereo partly shown) [Compound 167], the EC50 in the assay on A/Udorn/72 (H3N2) virus and in the assay with pseudoHIV particles was below 100 nM each time.
For the compound `C[C@@H]1CCC[C@@H]2C[C@@H](NC(=O)c3cc(Cl)c(N)cc3O)CCN21` [BMY-27709], the EC50 in assay [1] is 6000 to 8000 nM. In assay [2], the “activity against H3” value is on record as “not H3”.
Take `COc1cc(OC)cc(-c2cc(CCCNC(=O)[C@@H](N)Cc3ccccc3)c(/C=C3\SC(=S)N(C4CC5CCC4C5)C3=O)o2)c1` (stereo partly shown) [Compound 171]: the half-maximal effective concentration (EC50) in the assay on A/Udorn/72 (H3N2) virus and with pseudoHIV particles was below 100 nM each time.
Consider `COc1cc(OCC(=O)N[C@@H](Cc2ccccc2)C(=O)O)cc(-c2ccc(/C=C3\SC(=S)N(C4CC5CCC4C5)C3=O)o2)c1` (stereo partly shown) [Compound 83], for which the EC50 with A/Udorn/72 (H3N2) virus and in the assay on pseudoHIV particles was below 100 nM throughout.
Turning to `COc1cc(OC)cc(-c2cc(CCCCO)c(/C=C3\SC(=S)N(C4C5CC6CC(C5)CC4C6)C3=O)o2)c1` (stereo not shown) [Compound 114], the EC50 with A/Udorn/72 (H3N2) virus and with pseudoHIV particles was below 100 nM throughout.
Regarding `COc1cc(OC)cc(-c2cc(CCC(=O)O)c(/C=C3\SC(=S)N(C4C5CC6CC(C5)CC4C6)C3=O)o2)c1` (stereo not shown) [Compound 129], the half-maximal effective concentration (EC50) in the assay on A/Udorn/72 (H3N2) virus and in the assay with pseudoHIV particles was below 100 nM throughout.
Turning to `NCCCc1cc(-c2ccc(Cl)cc2)oc1/C=C1\SC(=S)N(C2CC3CCC2C3)C1=O` (stereo not shown) [Compound 124], the EC50 in the assay on A/Udorn/72 (H3N2) virus and in the assay on pseudoHIV particles was below 100 nM throughout.
Take `O=C1/C(=C/c2oc(-c3ccc(Cl)cc3)cc2CCCO)SC(=S)N1C1CC2CCC1C2` (stereo not shown) [Compound 99]: the concentration for a half-maximal effect (EC50) in the assay with A/Udorn/72 (H3N2) virus and in the assay with pseudoHIV particles was below 100 nM throughout.
As to `O=C1/C(=C/c2oc(-c3ccc(F)cc3)cc2CCCO)SC(=S)N1C1CC2CCC1C2` (stereo not shown) [Compound 104], the EC50 in the assay on A/Udorn/72 (H3N2) virus and in the assay with pseudoHIV particles was below 100 nM each time.
As for `COc1cc(OC)cc(-c2cc(CCCNC(=N)N)c(/C=C3\SC(=S)N(C4CC5CCC4C5)C3=O)o2)c1` (stereo not shown) [Compound 195], the half-maximal effective concentration (EC50) in the assay with A/Udorn/72 (H3N2) virus and in the assay on pseudoHIV particles was below 100 nM in each case.
As for `COc1cc(OC)cc(-c2cc(CCCNC(=O)[C@H](Cc3ccccc3)NC(=O)OC(C)(C)C)c(/C=C3\SC(=S)N(C4CC5CCC4C5)C3=O)o2)c1` (stereo partly shown) [Compound 157], the EC50 with A/Udorn/72 (H3N2) virus and in the assay on pseudoHIV particles was below 100 nM throughout.
For `COc1cc(O)cc(-c2cc(CCCO)c(/C=C3\SC(=S)N(C4CC5CCC4C5)C3=O)o2)c1` (stereo not shown) [Compound 101], the half-maximal effective concentration (EC50) in the assay with A/Udorn/72 (H3N2) virus and in the assay on pseudoHIV particles was below 100 nM in each case.
For `CCOC(=O)COc1cc(-c2ccc(/C=C3\SC(=S)N(C4CC5CCC4C5)C3=O)o2)ccc1OC` (stereo not shown) [Compound 22], the EC50 in the assay with A/Udorn/72 (H3N2) virus and in the assay with pseudoHIV particles was below 100 nM throughout.
Consider `COc1cc(O)cc(-c2cc(CCCN)c(/C=C3\SC(=S)N(C4CC5CCC4C5)C3=O)o2)c1` (stereo not shown) [Compound 122], for which the EC50 in the assay with A/Udorn/72 (H3N2) virus and with pseudoHIV particles was below 100 nM throughout.
On to `OC(CCN1CCCCC1)(c1ccccc1)C1C2CC3C(C2)C31` (stereo not shown) [Triperiden], for which, in the assay on influenza virus, the “concentration inhibiting influenza virus replication” value was 20 µg/mL.
`COc1cc(OC)cc(-c2cc(/C=C/C(=O)O)c(/C=C3\SC(=S)N(C4CC5CCC4C5)C3=O)o2)c1` (stereo not shown) [Compound 130]: the half-maximal effective concentration (EC50) with A/Udorn/72 (H3N2) virus and in the assay on pseudoHIV particles was below 100 nM throughout.
As to `COc1cc(OC)cc(-c2ccc(/C=C3\SC(=S)N(C4CC5CCC4C5)C3=O)o2)c1` (stereo not shown) [Compound 19], the EC50 with A/Udorn/72 (H3N2) virus and with pseudoHIV particles was below 100 nM throughout.
For the compound `CCOC(=O)COc1cc(-c2ccc(/C=C3\SC(=S)N(C4C5CC6CC(C5)CC4C6)C3=O)o2)ccc1OC` (stereo not shown) [Compound 21], the EC50 in the assay with A/Udorn/72 (H3N2) virus and in the assay on pseudoHIV particles was below 100 nM throughout.
Take `COc1ccc(-c2ccc(/C=C3\SC(=S)N(C4C5CC6CC(C5)CC4C6)C3=O)o2)cc1OCC(=O)O` (stereo not shown) [Compound 33]: the concentration giving a half-maximal response (EC50) with A/Udorn/72 (H3N2) virus and with pseudoHIV particles was below 100 nM throughout.
In the case of `O=C1/C(=C/c2oc(-c3ccc(Cl)cc3)cc2CCCN2CCNCC2)SC(=S)N1C1CC2CCC1C2` (stereo not shown) [Compound 186], the EC50 in the assay with A/Udorn/72 (H3N2) virus and in the assay on pseudoHIV particles was below 100 nM each time.
On to `COc1cc(OC)cc(-c2cc(CCCO)c(/C=C3\SC(=S)N(C4C5CC6CC(C5)CC4C6)C3=O)o2)c1` (stereo not shown) [Compound 95], for which the EC50 in the assay with A/Udorn/72 (H3N2) virus and in the assay on pseudoHIV particles was below 100 nM each time.
In the case of `COc1cc(O)cc(-c2cc(CCCN)c(/C=C3\SC(=S)N(C4C5CC6CC(C5)CC4C6)C3=O)o2)c1` (stereo not shown) [Compound 123], the EC50 in the assay with A/Udorn/72 (H3N2) virus and in the assay on pseudoHIV particles was below 100 nM each time.
As to `COc1cc(OC)cc(-c2cc(CCCNC(=O)[C@@H](N)CC(N)=O)c(/C=C3\SC(=S)N(C4CC5CCC4C5)C3=O)o2)c1` (stereo partly shown) [Compound 168], the 50% effective concentration (EC50) in the assay with A/Udorn/72 (H3N2) virus and in the assay with pseudoHIV particles was below 100 nM each time.
On to `COc1cc(O)cc(-c2cc(CCCO)c(/C=C3\SC(=S)N(C4C5CC6CC(C5)CC4C6)C3=O)o2)c1` (stereo not shown) [Compound 102], for which the EC50 in the assay with A/Udorn/72 (H3N2) virus and in the assay with pseudoHIV particles was below 100 nM throughout.
`CCOC(=O)COc1cc(-c2ccc(/C=C3\SC(=S)N(C4CC5CCC4C5)C3=O)o2)cc(OC)c1OC` (stereo not shown) [Compound 29]: the EC50 in the assay with A/Udorn/72 (H3N2) virus and in the assay on pseudoHIV particles was below 100 nM each time.
